Reference: PubChem BioAssay (NCI)
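Protocol summary: plate cells (96-well), add compound at 5 concentrations, incubate 48 h, interpolate endpoints linearly. Abbreviation: GI50, concentration required for 50% inhibition of growth. Definition used: TGI = concentration required for complete inhibition of growth.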

How the values were obtained:
Experiment in all cases: NCI tumour cell line growth inhibition, 48 h
OVCAR-8 ovarian = test system: OVCAR-8 ovarian
UACC-62 melanoma = test system: UACC-62 melanoma
M14 melanoma = test system: M14 melanoma
KM12 colon = test system: KM12 colon
IGROV1 ovarian = test system: IGROV1 ovarian
HOP-92 NSCLC = test system: HOP-92 NSCLC
EKVX NSCLC = test system: EKVX NSCLC
NCI-H460 lung = test system: NCI-H460 lung
SNB-19 CNS = test system: SNB-19 CNS
DU-145 prostate = test system: DU-145 prostate

With `O=S1(=O)NNC(=NCc2ccc(Cl)cc2)c2ccccc21` the TGI (OVCAR-8 ovarian) was over 100 µM, the TGI (UACC-62 melanoma) was over 100 µM and the TGI (M14 melanoma) was over 100 µM. It also gave a TGI (KM12 colon) of over 100 µM, a TGI (IGROV1 ovarian) of over 100 µM and a TGI (HOP-92 NSCLC) of over 100 µM. For the same compound, the TGI (EKVX NSCLC) was over 100 µM, the TGI (NCI-H460 lung) was over 100 µM and the TGI (SNB-19 CNS) was over 100 µM.

`NC(N)=N/N=C/c1c(-c2ccc([N+](=O)[O-])cc2)nc2sccn12` was tested, and the TGI (UACC-62 melanoma) was 3.22 µM, the TGI (M14 melanoma) was 3.38 µM and the TGI (KM12 colon) was 1.88 µM. For the same compound, the TGI (IGROV1 ovarian) was 36.4 µM, the TGI (DU-145 prostate) was 3.21 µM and the TGI (HOP-92 NSCLC) was 3.52 µM. It also gave a TGI (EKVX NSCLC) of 3.44 µM, a TGI (NCI-H460 lung) of 4.03 µM and a TGI (SNB-19 CNS) of 2.74 µM.

For `CN(CCc1ccc(Cl)c(Cl)c1)[C@H]1CCCC[C@H]1N1CCCC1`, the TGI (OVCAR-8 ovarian) was over 100 µM, the TGI (UACC-62 melanoma) was over 100 µM and the TGI (M14 melanoma) was over 100 µM. For the same compound, the TGI (KM12 colon) was over 100 µM, the TGI (IGROV1 ovarian) was over 100 µM and the TGI (DU-145 prostate) was over 100 µM. For the same compound, the TGI (HOP-92 NSCLC) was over 100 µM, the TGI (EKVX NSCLC) was over 100 µM and the TGI (SNB-19 CNS) was over 100 µM.

With `CC1=CC(O)C(O)C2(C)C1CC1OC(=O)C(O)C3C(C)C(O)C4(O)OCC13C42` (stereo not drawn) the TGI (OVCAR-8 ovarian) was over 570 µM, the TGI (UACC-62 melanoma) was 341 µM and the TGI (KM12 colon) was 389 µM. For the same compound, the TGI (IGROV1 ovarian) was 224 µM, the TGI (HOP-92 NSCLC) was 14.6 µM and the TGI (EKVX NSCLC) was 197 µM. For the same compound, the TGI (NCI-H460 lung) was 50 µM and the TGI (SNB-19 CNS) was 91.7 µM.

With `CS(=O)(=O)OCCN1CCC2(CC1)SSC1(CCN(CCOS(C)(=O)=O)CC1)S2` the TGI (OVCAR-8 ovarian) was over 100 µM, the TGI (UACC-62 melanoma) was over 100 µM and the TGI (M14 melanoma) was over 100 µM. The TGI (KM12 colon) was over 100 µM, the TGI (IGROV1 ovarian) was over 100 µM and the TGI (NCI-H460 lung) was over 100 µM. It also gave a TGI (SNB-19 CNS) of over 100 µM.

`CCOC(=O)c1ccc(C(=O)C(C(C)=O)C(=O)OC(C)(C)C)n1C` (stereo not drawn) showed a TGI (OVCAR-8 ovarian) of over 100 µM, a TGI (UACC-62 melanoma) of over 100 µM and a TGI (M14 melanoma) of over 100 µM. It also gave a TGI (KM12 colon) of over 100 µM, a TGI (IGROV1 ovarian) of over 100 µM and a TGI (DU-145 prostate) of over 100 µM. It also gave a TGI (EKVX NSCLC) of over 100 µM, a TGI (NCI-H460 lung) of over 100 µM and a TGI (SNB-19 CNS) of over 100 µM.

Compound `CCOC(=O)c1nc2c3c(ncn2n1)Oc1c(c(-c2ccccc2)nn1-c1ccccc1)C3c1ccc(Cl)cc1` (stereo not drawn) has a TGI (OVCAR-8 ovarian) of over 100 µM, a TGI (UACC-62 melanoma) of over 100 µM and a TGI (M14 melanoma) of over 100 µM. The TGI (KM12 colon) was over 100 µM, the TGI (DU-145 prostate) was over 100 µM and the TGI (HOP-92 NSCLC) was over 100 µM. It also gave a TGI (NCI-H460 lung) of over 100 µM and a TGI (SNB-19 CNS) of over 100 µM.

`CC(C)(C)N=C1CC(C)(C)c2ccccc2C(=Nc2ccccc2)S1` was tested, and the TGI (OVCAR-8 ovarian) was over 100 µM, the TGI (UACC-62 melanoma) was over 100 µM and the TGI (M14 melanoma) was over 100 µM. For the same compound, the TGI (KM12 colon) was over 100 µM, the TGI (IGROV1 ovarian) was over 100 µM and the TGI (EKVX NSCLC) was over 100 µM. It also gave a TGI (NCI-H460 lung) of over 100 µM and a TGI (SNB-19 CNS) of over 100 µM.

For `OC(c1ccc(Cl)cc1)(c1ccc(Cl)cc1)C(O)(c1ccc(Cl)cc1)c1ccc(Cl)cc1`, the GI50 (UACC-62 melanoma) was 2.41 µM, the TGI (UACC-62 melanoma) was over 100 µM and the GI50 (M14 melanoma) was 3.23 µM. For the same compound, the TGI (M14 melanoma) was over 100 µM, the GI50 (KM12 colon) was 4.12 µM and the TGI (KM12 colon) was over 100 µM. The GI50 (IGROV1 ovarian) was 1.97 µM, the TGI (IGROV1 ovarian) was over 100 µM and the GI50 (EKVX NSCLC) was 3.14 µM. For the same compound, the TGI (EKVX NSCLC) was over 100 µM, the GI50 (NCI-H460 lung) was 3.11 µM and the TGI (NCI-H460 lung) was over 100 µM.

With `COc1ccc(/C=C2\Cc3ccccc3C2=O)cc1OC` the TGI (OVCAR-8 ovarian) was over 100 µM, the TGI (UACC-62 melanoma) was over 100 µM and the TGI (M14 melanoma) was over 100 µM. It also gave a TGI (KM12 colon) of over 100 µM, a TGI (IGROV1 ovarian) of over 100 µM and a TGI (EKVX NSCLC) of over 100 µM. The TGI (NCI-H460 lung) was over 100 µM and the TGI (SNB-19 CNS) was over 100 µM.

Compound `CCN(CC)CCO/N=C1\CC[C@H]2[C@@H]3CC=C4C[C@@H](O)CC[C@]4(C)[C@H]3CC[C@]12C` has a TGI (OVCAR-8 ovarian) of 64.6 µM, a TGI (UACC-62 melanoma) of 31.1 µM and a TGI (KM12 colon) of 38.5 µM. It also gave a TGI (IGROV1 ovarian) of over 100 µM, a TGI (DU-145 prostate) of 65.7 µM and a TGI (EKVX NSCLC) of over 100 µM. It also gave a TGI (NCI-H460 lung) of 29.8 µM and a TGI (SNB-19 CNS) of 98.5 µM.

Compound `CC(C)CCC[C@@H](C)[C@H]1CC[C@H]2[C@@H]3CC=C4C[C@@H](OC(=O)c5cccc6c(=O)c7ccccc7[nH]c56)CC[C@]4(C)[C@H]3CC[C@]12C` has a TGI (OVCAR-8 ovarian) of over 75 µM, a TGI (UACC-62 melanoma) of over 75 µM and a TGI (M14 melanoma) of over 75 µM. It also gave a TGI (KM12 colon) of over 75 µM, a TGI (IGROV1 ovarian) of over 75 µM and a TGI (HOP-92 NSCLC) of over 75 µM. The TGI (EKVX NSCLC) was over 75 µM and the TGI (SNB-19 CNS) was over 75 µM.
